# Measurements taken from patent publication US12456194B2, “Methods for identifying and using cell behavior in drug screening and diagnosis” (Indiana University Research and Technology Corporation, priority 2020, dated 2025).
# What was measured:
# [1] = tested on: UN-KC6141 pancreatic cancer cell line; experiment: 3D tumor culture T cell infiltration drug screen scored by neural network, UN-KC6141; conditions: UN-KC6141 pancreatic cancer cell line-based screen; library of 141 small molecule epigenetic modulators; averaging the scores of a total of 10 images; FIG. 6
# Experimental: (§1) Once the predicted Rd is determined, the predicted Rd for each patient can be classified as depicted in Step 215 of FIG. 2. For example, Rd can be defined as high, medium, and low-survival groups by binning the Rd's by or into risk classifications or categories, such as low survival, medium survival and high survival. Low survival may mean the Rd>75% of TCGA SKCM patient dataset; medium survival may mean Rd=25%-75% of TCGA SKCM patient dataset; and high survival may mean Rd<25% of TCGA SKCM patient dataset. Each risk classification or category may be associated with a predetermined values, such as 0 for low survival (high risk), 1 for medium survival (medium risk), and 2 for high survival (low risk).
# (§2) The trained neural network as described in FIG. 1 and FIG. 4 is transferred to 3D tumor culture dataset 305, a drug screening method and/or a companion diagnostic method 300 may be performing using the algorithms discussed above with respect to FIGS. 1, 2 and 4 to objectively quantify and predict/score the effectiveness of a drug or a treatment based on a particular type of TIL behavior within 3D tumor cultures or patent tumor tissue samples. For example, a library of 141 small molecule epigenetic modulators in 2 cancer cell lines (e.g., B16F10 melanoma and UN-KC6141 pancreatic cancer) were screened. […]
# [2] = tested on: B16F10 melanoma cell line; experiment: 3D tumor culture T cell infiltration drug screen scored by neural network, B16F10; conditions: B16F10 melanoma cell line-based screen; library of 141 small molecule epigenetic modulators; averaging the scores of a total of 10 images; FIG. 6
# Experimental: as §1, §2
structure (smiles),measurement,setting,value
c1ccc([C@@H]2C[C@H]2NC2CCNCC2)cc1 [GSK-LSD1],final score (T cell infiltration enhancement activity),[1],highest score
same,final score (T cell infiltration enhancement activity),[2],highest score
